Measured values reported in publication PMC9607644, “Glycoconjugation of Quinoline Derivatives Using the C-6 Position in Sugars as a Strategy for Improving the Selectivity and Cytotoxicity of Functionalized Compounds” (Molecules, 2022).
Marks after values point to notes of the source that are not given here.

Columns and labels:
[1] = test system: MCF-7 cells; assay: MTT cytotoxicity assay, MCF-7; format: cell-based, human; settings: for IC50: Homo sapiens, MCF7, incubation time 72 h; for IC50 / growth inhibitory activity in words, MCF-7: MTT; for Selectivity Index (SI) MCF-7: IC50 NHDF-Neo / IC50 MCF-7, 72 h incubation
Protocol: (§1) An in vitro biological test package was performed for the obtained derivatives. […] The MTT test is a colorimetric method for detecting proliferating cells. It is based on the ability of the enzyme mitochondrial dehydrogenase to convert yellow tetrazole salt (MTT) into purple formazan. The amount of the product formed in the reaction, determined spectrophotometrically, is proportional to the number of living cells.
(§2) The in vitro cytotoxicity of the test compounds was determined by the MTT (3-[4,5–dimethylthiazol-2-yl]-2,5-diphenyltetrazolium bromide) test (Sigma-Aldrich, Taufkirchen, Germany) according to the manufacturer’s protocol. At the beginning, for each cell line were determined the optimal seeding densities to ensure exponential growth throughout the experimental period. The confluent layer of cells were trypsinized, collected, and suspended in a growth medium. […] Then, the culture medium was replaced with solutions of different concentrations of test compounds in a fresh medium. Stock solutions of test compounds were prepared in DMSO and diluted to final concentrations with appropriate volumes of the growth medium directly before the experiment. Cells suspended in a medium supplemented with 0.5% DMSO (the amount of DMSO necessary to dissolve the highest dose of the respective sample) were used as a control of the experiment. […] The compound-treated cells were incubated for a further 24–72 h. […] After this time, the MTT dye was carefully removed, and the acquired formazan crystals were dissolved by DMSO (Chempur, Piekary Śląskie, Poland). The proliferation was evaluated by measuring the formazan product’s absorbance at a wavelength of 570 nm with a microplate spectrophotometer (Epoch, BioTek, Winooski, VT, USA). All experiments were conducted in triplicate with four technical repeats for each tested concentration. Results were expressed as the percentage change in the viability of the test cells relative to the untreated control cells and calculated as the inhibitory concentration (IC50). […] The results are expressed as the average value ± standard deviation (SD).

[2] = test system: HCT-116 cells; assay: MTT cytotoxicity assay, HCT-116; format: cell-based, human; settings: for IC50: Homo sapiens, HCT-116; for IC50 / growth inhibitory activity in words, HCT-116: MTT
Protocol: as §1, §2

[3] = test system: NHDF-Neo cells; assay: MTT cytotoxicity assay, NHDF-Neo; format: cell-based; settings: Homo sapiens, incubation time 72 h
Protocol: An in vitro biological test package was performed for the obtained derivatives. All newly synthesized compounds were assessed for their cytotoxic activity against human cell lines with increased GLUT expression: the colon cancer cell line (HCT-116) and the breast cancer cell line (MCF-7), as well as on normal human dermal fibroblasts cells (NHDF-Neo), using the MTT assay (3-(4,5-dimethylthiazol-2-yl)-2,5-diphenyltetrazolium bromide). The MTT test is a colorimetric method for detecting proliferating cells. It is based on the ability of the enzyme mitochondrial dehydrogenase to convert yellow tetrazole salt (MTT) into purple formazan. The amount of the product formed in the reaction, determined spectrophotometrically, is proportional to the number of living cells. The antiproliferative activity was expressed as the concentration that caused 50% inhibition of the growth of the population of cells treated with the test compounds relative to the control cells (inhibitory concentration activity—IC50). Table 1 and Table 2 summarize the IC50 values calculated for all tested compounds.
The in vitro cytotoxicity of the test compounds was determined by the MTT (3-[4,5–dimethylthiazol-2-yl]-2,5-diphenyltetrazolium bromide) test (Sigma-Aldrich, Taufkirchen, Germany) according to the manufacturer’s protocol. At the beginning, for each cell line were determined the optimal seeding densities to ensure exponential growth throughout the experimental period. The confluent layer of cells were trypsinized, collected, and suspended in a growth medium. The cell suspension were then seeded into 96-well plates at a density of 1 × 10^4 or 2 × 10^3 (HCT-116) or 5 × 10^3 (MCF-7, NHDF-Neo) per well and incubated for 24 h under standard conditions (5% CO2, 37 °C). Then, the culture medium was replaced with solutions of different concentrations of test compounds in a fresh medium. Stock solutions of test compounds were prepared in DMSO and diluted to final concentrations with appropriate volumes of the growth medium directly before the experiment. Cells suspended in a medium supplemented with 0.5% DMSO (the amount of DMSO necessary to dissolve the highest dose of the respective sample) were used as a control of the experiment. […] The compound-treated cells were incubated for a further 24–72 h. After that, the medium was removed and the MTT solution (50 µL, 0.5 mg/mL in PBS) was added into each well and incubated for another 3 h under standard conditions (5% CO2, 37 °C). After this time, the MTT dye was carefully removed, and the acquired formazan crystals were dissolved by DMSO (Chempur, Piekary Śląskie, Poland). The proliferation was evaluated by measuring the formazan product’s absorbance at a wavelength of 570 nm with a microplate spectrophotometer (Epoch, BioTek, Winooski, VT, USA). All experiments were conducted in triplicate with four technical repeats for each tested concentration. Results were expressed as the percentage change in the viability of the test cells relative to the untreated control cells and calculated as the inhibitory concentration (IC50). The IC50 values were defined as the drug concentration that was necessary to reduce cell proliferation to 50% of the untreated control and this parameter was calculated using CalcuSyn software (version 2.0, Biosoft, Cambridge, UK). The results are expressed as the average value ± standard deviation (SD).

[4] = IC50 NHDF-Neo / IC50 HCT-116, 72 h incubation
[5] = IC50 NHDF-Neo / IC50 HCT-116, HCT-116 incubation time 24 h

Compound	IC50 [1] [µM]	IC50 ([2]; incubation time 24 h) [µM]	further results
[N-]=[N+]=NC[C@H]1OC(O)[C@H](O)[C@@H](O)[C@@H]1O (stereo partly drawn) [Compound 6, 6-azido-6-deoxy-D-glucopyranose]	> 800	> 800	–
CC(=O)O[C@@H]1[C@@H](OC(C)=O)[C@@H](O[C@H]2O[C@H](Cn3cc(COc4cccc5cccnc45)nn3)[C@@H](OC(C)=O)[C@H](OC(C)=O)[C@H]2OC(C)=O)O[C@H](Cn2cc(COc3cccc4cccnc34)nn2)[C@H]1OC(C)=O [Compound D-1]	30.7 ± 0.99	46.3 ± 3.12	IC50 [3]: 34.5 ± 0.39 µM; Selectivity Index (SI) MCF-7 [1]: 1.12; IC50 ([2]; incubation time 72 h): 26.3 ± 0.72 µM; Selectivity Index (SI) HCT-116 [2, 4]: 1.31
[N-]=[N+]=NC[C@H]1OC(O)[C@H](O)[C@@H](O)[C@H]1O (stereo partly drawn) [Compound 11, 6-azido-6-deoxy-D-galactopyranose]	> 800	> 800	–
CC(=O)OC1O[C@H](CN=[N+]=[N-])[C@@H](OC(C)=O)[C@H](OC(C)=O)[C@H]1OC(C)=O (stereo partly drawn) [Compound 5, 1,2,3,4-tetra-O-acetyl-6-azido-6-deoxy-D-glucopyranose]	201 ± 2.09	> 800	–
CC(=O)OC1O[C@H](Cn2cc(CO)nn2)[C@@H](OC(C)=O)[C@H](OC(C)=O)[C@H]1OC(C)=O (stereo partly drawn) [Compound 29]	> 800	> 800	–
OCc1cn(C[C@H]2OC(O)[C@H](O)[C@@H](O)[C@@H]2O)nn1 (stereo partly drawn) [Compound 30]	> 800	> 800	–
O=C(NCc1cn(CCO)nn1)[C@H]1OC(O)[C@H](O)[C@@H](O)[C@@H]1O (stereo partly drawn) [Compound 34]	> 800	> 800	–
CC(=O)O[C@@H]1[C@@H](OC(C)=O)[C@@H](O[C@H]2O[C@H](CN=[N+]=[N-])[C@@H](OC(C)=O)[C@H](OC(C)=O)[C@H]2OC(C)=O)O[C@H](CN=[N+]=[N-])[C@H]1OC(C)=O [Compound 23, 2,3,4,2′,3′,4′-hexa-O-acetyl-6,6′-diazido-6,6′-dideoxy-D-trehalose]	> 800	> 800	melting point: 92 to 93 °C
O=C(NCc1cn(CCCOc2cccc3cccnc23)nn1)[C@H]1OC(O)[C@H](O)[C@@H](O)[C@@H]1O (stereo partly drawn) [Compound C-3]	706.6 ± 2.87	> 800	IC50 [3]: > 800 µM; growth inhibitory activity in words, MCF-7 [1]: inactive; IC50 ([2]; incubation time 72 h): 767 ± 2.39 µM; growth inhibitory activity in words, HCT-116 [2]: inactive
[N-]=[N+]=NC[C@H]1O[C@H](O[C@H]2O[C@H](CN=[N+]=[N-])[C@@H](O)[C@H](O)[C@H]2O)[C@H](O)[C@@H](O)[C@@H]1O [Compound 20, 6,6′-diazido-6,6′-dideoxy-D-trehalose]	> 800	> 800	melting point: 118 °C
CC(=O)OC1O[C@H](C(=O)NCc2cn(CCO)nn2)[C@@H](OC(C)=O)[C@H](OC(C)=O)[C@H]1OC(C)=O (stereo partly drawn) [Compound 33]	> 800	> 800	–
OC1O[C@H](Cn2cc(COc3cccc4cccnc34)nn2)[C@H](O)[C@H](O)[C@H]1O (stereo partly drawn) [Compound B-2]	156 ± 7.4	293 ± 8	IC50 [3]: 271.6 ± 0.35 µM; Selectivity Index (SI) MCF-7 [1]: 1.74; Selectivity Index (SI) HCT-116 [2, 5]: 0.93 ^b
CC(=O)O[C@@H]1O[C@H](C(=O)NCc2cn(CCCOc3cccc4cccnc34)nn2)[C@@H](OC(C)=O)[C@H](OC(C)=O)[C@H]1OC(C)=O [Compound C-2]	157 ± 7.86	94.2 ± 1.48	IC50 [3]: 318.5 ± 3.09 µM; Selectivity Index (SI) MCF-7 [1]: 2.03; growth inhibitory activity in words, MCF-7 [1]: did not show significant ability to inhibit cell growth; IC50 ([2]; incubation time 72 h): 62.35 ± 0.32 µM; Selectivity Index (SI) HCT-116 [2, 4]: 5.11; growth inhibitory activity in words, HCT-116 [2]: did not show significant ability to inhibit cell growth
CC(=O)O[C@@H]1[C@@H](OC(C)=O)[C@@H](O[C@H]2O[C@H](Cn3cc(CO)nn3)[C@@H](OC(C)=O)[C@H](OC(C)=O)[C@H]2OC(C)=O)O[C@H](Cn2cc(CO)nn2)[C@H]1OC(C)=O [Compound 35]	> 800	> 800	–
OCc1cn(C[C@H]2O[C@H](O[C@H]3O[C@H](Cn4cc(CO)nn4)[C@@H](O)[C@H](O)[C@H]3O)[C@H](O)[C@@H](O)[C@@H]2O)nn1 [Compound 36]	> 800	> 800	–
CC(=O)OC1O[C@H](CN=[N+]=[N-])[C@H](OC(C)=O)[C@H](OC(C)=O)[C@H]1OC(C)=O (stereo partly drawn) [Compound 12, 1,2,3,4-tetra-O-acetyl-6-azido-6-deoxy-D-galactopyranose]	641.2 ± 1.79	> 800	–
OCc1cn(C[C@H]2OC(O)[C@H](O)[C@@H](O)[C@H]2O)nn1 (stereo partly drawn) [Compound 32]	> 800	> 800	–
CC(=O)O[C@@H]1O[C@H](C(=O)NCc2cn(CCOc3cccc4cccnc34)nn2)[C@@H](OC(C)=O)[C@H](OC(C)=O)[C@H]1OC(C)=O [Compound C-1]	224 ± 7.34	173 ± 6.68	IC50 [3]: 215 ± 3.1 µM; Selectivity Index (SI) MCF-7 [1]: 0.96; growth inhibitory activity in words, MCF-7 [1]: did not show significant ability to inhibit cell growth; IC50 ([2]; incubation time 72 h): 81.5 ± 3.36 µM; Selectivity Index (SI) HCT-116 [2, 4]: 2.64; growth inhibitory activity in words, HCT-116 [2]: did not show significant ability to inhibit cell growth
CC(=O)OC1O[C@H](Cn2cc(COc3cccc4cccnc34)nn2)[C@H](OC(C)=O)[C@H](OC(C)=O)[C@H]1OC(C)=O (stereo partly drawn) [Compound B-1]	36.67 ± 0.03	75.1 ± 1.3	IC50 [3]: 81.42 ± 0.52 µM; Selectivity Index (SI) MCF-7 [1]: 2.22; Selectivity Index (SI) HCT-116 [2, 5]: 1.08 ^b
C#CCNC(=O)[C@H]1O[C@@H](OC(C)=O)[C@H](OC(C)=O)[C@@H](OC(C)=O)[C@@H]1OC(C)=O [Compound 15, 1,2,3,4-tetra-O-acetyl-N-(prop-2-yn-1-yl)-β-D-glucopyranuronic acid amide]	714 ± 15.7	584 ± 9.39	–
C#CCNC(=O)[C@H]1OC(O)[C@H](O)[C@@H](O)[C@@H]1O (stereo partly drawn) [Compound 16, N-(prop-2-yn-1-yl)-D-glucopyranuronic acid amide]	> 800	> 800	–
CC(=O)OC1O[C@H](Cn2cc(CO)nn2)[C@H](OC(C)=O)[C@H](OC(C)=O)[C@H]1OC(C)=O (stereo partly drawn) [Compound 31]	> 800	> 800	–
